Measurements from US20260199350A1, “FLAVONES, QUINOLINONES, QUINAZOLINONES, AND AURONES, AND USES IN CK2-MEDIATED DISEASES” (Salk Institute for Biological Studies, priority 2022, published 2026).
≈ marks a conversion by molar mass, not a printed value. Read-outs that look alike come from different tables or passages of the source.

Tests used:
[1] = target: T1, CK2A1 (Homo sapiens, UniProt P68400); assay: Radiometric kinase assay (Eurofins), CK2A1; assay type: biochemical
T1 construct: purchased Eurofins
Source text: FIGS. 4A-4F characterize flavones for in vitro and in-cell CK2 inhibition. […] Representative of two independent experiments. […] Nonlinear fit was used to calculate IC50. […] Nonlinear fit was used to calculate IC50. […] Nonlinear fit was used to calculate IC50. […] Normalized to DMSO, data are representative of three independent experiments.
(§1) • ^1Radiometric kinase assay from Eurofins. Performed in astrocytes with a Promega Lumit IL-6 kit.

[2] = target: T2, CK2A2 (Homo sapiens, UniProt P19784); assay: Radiometric kinase assay (Eurofins), CK2A2; assay type: biochemical
T2 construct: purchased Eurofins
Source text: as §1

[3] = test system: IL-6 secretion; assay: IL-6 secretion assay in astrocytes (Promega Lumit IL-6 kit); assay type: cell-based, human; conditions: Homo sapiens, Astrocyte, read-out: IL6-Inhib.
Protocol: IL-6 secretion assay. HCAs were plated at 20,000 cells per well in white clear bottom 96-well plates. Two to three days later, media was removed and replaced with media containing 10 ng/mL IL1B and compound dilution series. Five hours later, plates were processed using the Lumit IL-6 Assay Kit (Promega W6030) according to the manufacturer's instructions.
• ^1Radiometric kinase assay from Eurofins. Performed in astrocytes with a Promega Lumit IL-6 kit. A series of halogenated flavones was generated and assayed (Table 3).

[4] = Aqueous solubility; assay type: physicochemical
[5] = Table 2, read-out: CK2A1 RAD IC50
[6] = Table 2, read-out: CK2A2 RAD IC50
[7] = Table 10, aurones, read-out: CK2A1 IC50
[8] = Table 10, aurones, read-out: CK2A2 IC50
[9] = Table 3, halogenated flavones, read-out: CK2A1 RAD IC50
[10] = Table 3, halogenated flavones, read-out: CK2A2 RAD IC50
[11] = aqueous (not further specified), Table 3, read-out: Aqueous Solubility

T1 sequence (P68400 whole entry): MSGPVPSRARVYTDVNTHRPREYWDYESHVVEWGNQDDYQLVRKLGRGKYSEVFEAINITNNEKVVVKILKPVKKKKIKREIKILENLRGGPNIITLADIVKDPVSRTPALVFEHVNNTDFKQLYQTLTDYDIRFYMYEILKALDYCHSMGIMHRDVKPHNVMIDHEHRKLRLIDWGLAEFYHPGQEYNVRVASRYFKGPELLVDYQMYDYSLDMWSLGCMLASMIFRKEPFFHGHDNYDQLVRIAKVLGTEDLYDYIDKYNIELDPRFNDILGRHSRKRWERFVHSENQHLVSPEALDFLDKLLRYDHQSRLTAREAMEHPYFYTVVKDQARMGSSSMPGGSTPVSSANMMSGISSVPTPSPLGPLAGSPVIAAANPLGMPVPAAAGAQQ
T2 sequence (P19784 whole entry): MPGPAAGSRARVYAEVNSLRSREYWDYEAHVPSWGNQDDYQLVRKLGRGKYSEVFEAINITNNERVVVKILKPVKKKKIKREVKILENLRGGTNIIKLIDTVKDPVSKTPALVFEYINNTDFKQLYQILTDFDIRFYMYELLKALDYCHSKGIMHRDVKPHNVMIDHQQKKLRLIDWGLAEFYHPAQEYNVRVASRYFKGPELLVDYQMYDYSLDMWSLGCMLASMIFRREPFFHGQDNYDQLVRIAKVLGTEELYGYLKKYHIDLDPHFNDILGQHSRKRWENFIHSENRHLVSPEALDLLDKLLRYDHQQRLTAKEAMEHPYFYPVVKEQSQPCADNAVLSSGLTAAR

Compound	IC50 [1, 5]	IC50 [2, 6]	IC50 ([3]; Table 2, astrocytes)	IC50 [1, 7]	IC50 [2, 8]	solubility ([4]; Table 10, read-out: Solubility)	IC50 ([3]; Table 10)	also measured
O=c1cc(-c2ccc(O)c(Br)c2)oc2c(Br)cc(Br)cc12 [JKT.464A]	19 nM	3 nM	5000 nM	–	–	–	–	–
O=c1cc(-c2cc(Cl)c(O)c(Cl)c2)oc2c(Br)cc(Br)cc12 [JKT.465A]	134 nM	45 nM	4900 nM	–	–	–	–	–
Cc1cc(-c2cc(=O)c3cc(Br)cc(Br)c3o2)ccc1O [JKT.475A]	> 5000 nM	2060 nM	> 10000 nM	–	–	–	–	–
COc1nc(-c2cc(=O)c3cc(Br)cc(Br)c3o2)ccc1O [JKT.606A]	9 nM	4 nM	3500 nM	–	–	–	–	–
O=C1/C(=C/c2ccc(O)cc2)Oc2c(Br)cc(Br)cc21 [JKT.629A]	–	–	–	> 5000 nM	> 5000 nM	5.6 µM (≈ 2.22 µg/mL)	7900 nM	–
COc1cc(/C=C2\Oc3c(Br)cc(Br)cc3C2=O)ccc1O [JKT.630A]	–	–	–	211 nM	274 nM	3 µM (≈ 1.28 µg/mL)	9800 nM	–
O=C1/C(=C/c2cccc(O)c2)Oc2c(Br)cc(Br)cc21 [JKT.631A]	–	–	–	> 5000 nM	> 5000 nM	22.6 µM (≈ 8.95 µg/mL)	> 10000 nM	–
N#Cc1ccc(/C=C2\Oc3c(Br)cc(Br)cc3C2=O)cc1 [JKT.632A]	–	–	–	> 5000 nM	> 5000 nM	> 200 µM	10000 nM	–
O=C1/C(=C/c2ccc(-c3nnn[nH]3)cc2)Oc2c(Br)cc(Br)cc21 [JKT.633A]	–	–	–	> 5000 nM	> 5000 nM	102 µM (≈ 45.8 µg/mL)	> 10000 nM	–
O=C1/C(=C/c2ccc(O)c(Br)c2)Oc2c(Br)cc(Br)cc21 [JKT.634A]	–	–	–	22 nM	46 nM	25.5 µM (≈ 12.1 µg/mL)	2000 nM	Inhibition of CK2A1 ([1]; in words): potent inhibition of both; Inhibition of CK2A2 ([2]; in words): potent inhibition of both
O=C1/C(=C/c2ccc(O)c(C(F)(F)F)c2)Oc2c(Br)cc(Br)cc21 [JKT.635A]	–	–	–	531 nM	213 nM	22 µM (≈ 10.2 µg/mL)	1800 nM	–
O=C(O)c1ccc(/C=C2\Oc3c(Br)cc(Br)cc3C2=O)cc1 [JKT.636A]	–	–	–	537 nM	62 nM	> 200 µM	> 10000 nM	Window of selectivity for CK2A2 over CK2A1 [2]: nine-fold
O=C1/C(=C/c2ccco2)Oc2c(Br)cc(Br)cc21 [JKT.637A]	–	–	–	> 5000 nM	> 5000 nM	52.4 µM (≈ 19.4 µg/mL)	> 10000 nM	–
O=C1/C(=C/c2ccoc2)Oc2c(Br)cc(Br)cc21 [JKT.638A]	–	–	–	> 5000 nM	> 5000 nM	30.2 µM (≈ 11.2 µg/mL)	> 10000 nM	–
COc1nc(-c2cc(=O)c3cccc(Br)c3o2)ccc1O [JKT.666A]	5 nM	8 nM	2000 nM	–	–	–	–	–
COc1nc(-c2cc(=O)c3cc(Cl)cc(Br)c3o2)ccc1O [JKT.669A]	7 nM	5 nM	2900 nM	–	–	–	–	–
COc1nc(-c2cc(=O)c3cc(Cl)cc(Cl)c3o2)ccc1O [JKT.678A]	17 nM	8 nM	3600 nM	–	–	–	–	–
COc1cc(-c2cc(=O)c3cc(Br)c(OC)c(Br)c3o2)ccc1O [JKT.706A]	247 nM	49 nM	8600 nM	–	–	–	–	–
O=c1cc(-c2ccc(O)c(Br)c2)oc2c(Br)cc(Cl)cc12 [JKT.714A]	–	–	–	–	–	–	–	IC50 [1, 9]: 12 nM; IC50 [2, 10]: 8 nM; solubility [4, 11]: 35.2 µM (≈ 15.2 µg/mL); IC50 ([3]; Table 3): 4600 nM
O=c1cc(-c2ccc(O)c(Br)c2)oc2c(Cl)cc(Cl)cc12 [JKT.715A]	–	–	–	–	–	–	–	IC50 [1, 9]: 18 nM; IC50 [2, 10]: 16 nM; solubility [4, 11]: 120 µM (≈ 46.2 µg/mL); IC50 ([3]; Table 3): 4100 nM
O=c1cc(-c2ccc(O)c(Cl)c2)oc2c(Br)cc(Br)cc12 [JKT.721A]	–	–	–	–	–	–	–	IC50 [1, 9]: 10 nM; IC50 [2, 10]: 5 nM; solubility [4, 11]: 19.6 µM (≈ 8.44 µg/mL); IC50 ([3]; Table 3): 2600 nM
O=c1cc(-c2ccc(O)c(Cl)c2)oc2c(Br)cc(Cl)cc12 [JKT.722A]	–	–	–	–	–	–	–	IC50 [1, 9]: 10 nM; IC50 [2, 10]: 7 nM; solubility [4, 11]: 27.5 µM (≈ 10.6 µg/mL); IC50 ([3]; Table 3): 2200 nM
O=c1cc(-c2ccc(O)c(I)c2)oc2c(Br)cc(Br)cc12 [JKT.724A]	–	–	–	–	–	–	–	IC50 [1, 9]: 19 nM; IC50 [2, 10]: 7 nM; solubility [4, 11]: 11.2 µM (≈ 5.85 µg/mL); IC50 ([3]; Table 3): 3800 nM
